According to patent US20250171457A1, “NITROGEN-CONTAINING HETEROCYCLIC COMPOUND HAVING NRF2 ACTIVATION EFFECT” (CHUGAI SEIYAKU KABUSHIKI KAISHA, priority 2022, published 2025):

System: Nrf2 transcriptional activity (pARE-Luc reporter) in HepG2 cells
Assay: In vitro Nrf2 transcriptional activity measurement by ARE-dependent reporter assay in HepG2 cell
Format: cell-based, human
Details: Homo sapiens; HepG2 cells transfected with pARE-Luc, 4 hours at 37° C.; luciferase activity of Example 1-54 or Example 17-23 at 3.75 μM defined as 100%
In short: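 HepG2 cells transfected with pGL4.37 (pARE-Luc), replated onto compound and incubated 4 h at 37° C; luciferase read by Bright-Glo luminescence. Response normalized to 100% set by a reference compound at 3.75 μM; EC50 from dose-response curve.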

SMILES | EC50 [nM]
C[C@@H]1CN(C2COC2)CCN1c1cc(Cl)c(C(=O)N2COc3c(cccc3-c3cc(N4C5CCC4COC5)c(C(=O)O)cc3F)C2)c(Cl)c1 [Compound 9-16, 4-[3-[2,6-Dichloro-4-[(2R)-2-methyl-4-(oxetan-3-yl)piperazin-1-yl]benzoyl]-2,4-dihydro-1,3-benzoxazin-8-yl]-5-fluoro-2-(3-oxa-8-azabicyclo[3.2.1]octan-8-yl)benzoic acid] | 4.8
O=C(O)c1cc(F)c(-c2cccc3c2OCN(C(=O)c2c(Cl)cc(N4CC5CCC(C4)N5C4COC4)cc2Cl)C3)cc1N1C2CCC1COC2 [Compound 9-17, 4-[3-[2,6-Dichloro-4-[8-(oxetan-3-yl)-3,8-diazabicyclo[3.2.1]octan-3-yl]benzoyl]-2,4-dihydro-1,3-benzoxazin-8-yl]-5-fluoro-2-(3-oxa-8-azabicyclo[3.2.1]octan-8-yl)benzoic acid] | 7.5
O=C(O)c1cc(F)c(-c2cccc3c2OCN(C(=O)c2c(Cl)cc(N4C5CCC4CN(C4COC4)C5)cc2Cl)C3)cc1N1C2CCC1COC2 [Compound 9-18, 4-[3-[2,6-Dichloro-4-[3-(oxetan-3-yl)-3,8-diazabicyclo[3.2.1]octan-8-yl]benzoyl]-2,4-dihydro-1,3-benzoxazin-8-yl]-5-fluoro-2-(3-oxa-8-azabicyclo[3.2.1]octan-8-yl)benzoic acid] | 6.4
C[C@H]1CN(C2COC2)CCN1c1cc(Cl)c(C(=O)N2COc3c(cccc3-c3cc(N4C5CCC4COC5)c(C(=O)O)cc3F)C2)c(Cl)c1 [Compound 9-19, 4-[3-[2,6-Dichloro-4-[(2S)-2-methyl-4-(oxetan-3-yl)piperazin-1-yl]benzoyl]-2,4-dihydro-1,3-benzoxazin-8-yl]-5-fluoro-2-(3-oxa-8-azabicyclo[3.2.1]octan-8-yl)benzoic acid] | 5.9
O=C(O)c1cc(F)c(-c2cccc3c2OCN(C(=O)c2c(Cl)cc(N4CC5CCC(C4)N5C4CC4)cc2Cl)C3)cc1N1C2CCC1COC2 [Compound 9-20, 4-[3-[2,6-Dichloro-4-(8-cyclopropyl-3,8-diazabicyclo[3.2.1]octan-3-yl)benzoyl]-2,4-dihydro-1,3-benzoxazin-8-yl]-5-fluoro-2-(3-oxa-8-azabicyclo[3.2.1]octan-8-yl)benzoic acid] | 4.6
O=C(O)c1cc(F)c(-c2cccc3c2OCN(C(=O)c2c(Cl)cc(N4C5CC4CN(C4CC(F)(F)C4)C5)cc2Cl)C3)cc1N1C2CCC1COC2 [Compound 9-21, 4-[3-[2,6-Dichloro-4-[3-(3,3-difluorocyclobutyl)-3,6-diazabicyclo[3.1.1]heptan-6-yl]benzoyl]-2,4-dihydro-1,3-benzoxazin-8-yl]-5-fluoro-2-(3-oxa-8-azabicyclo[3.2.1]octan-8-yl)benzoic acid] | 6
CCN1CCN(c2cc(Cl)c(C(=O)N3COc4c(cccc4-c4cc(N5C6CCC5COC6)c(C(=O)O)cc4F)C3)c(Cl)c2)[C@H](C)C1 [Compound 9-22, 4-[3-[2,6-Dichloro-4-[(2R)-4-ethyl-2-methylpiperazin-1-yl]benzoyl]-2,4-dihydro-1,3-benzoxazin-8-yl]-5-fluoro-2-(3-oxa-8-azabicyclo[3.2.1]octan-8-yl)benzoic acid] | 0.9
CN1CCN(c2cc(Cl)c(C(=O)N3COc4c(cccc4-c4cc(N5C6CCC5COC6)c(C(=O)O)cc4F)C3)c(Cl)c2)CC1C(F)(F)F (centres unmarked) [Compound 9-23, 4-[3-[2,6-Dichloro-4-[4-methyl-3-(trifluoromethyl)piperazin-1-yl]benzoyl]-2,4-dihydro-1,3-benzoxazin-8-yl]-5-fluoro-2-(3-oxa-8-azabicyclo[3.2.1]octan-8-yl)benzoic acid] | 3.1
CC1C(C)N(c2cc(Cl)c(C(=O)N3COc4c(cccc4-c4cc(N5C6CCC5COC6)c(C(=O)O)cc4F)C3)c(Cl)c2)CCN1C (centres unmarked) [Compound 9-24, 4-[3-[2,6-Dichloro-4-(2,3,4-trimethylpiperazin-1-yl)benzoyl]-2,4-dihydro-1,3-benzoxazin-8-yl]-5-fluoro-2-(3-oxa-8-azabicyclo[3.2.1]octan-8-yl)benzoic acid] | 2.5
C[C@@H]1CNCCN1c1cc(Cl)c(C(=O)N2COc3c(cccc3-c3cc(N4C5CCC4COC5)c(C(=O)O)cc3F)C2)c(Cl)c1 [Compound 9-25, 4-[3-[2,6-Dichloro-4-[(2R)-2-methylpiperazin-1-yl]benzoyl]-2,4-dihydro-1,3-benzoxazin-8-yl]-5-fluoro-2-(3-oxa-8-azabicyclo[3.2.1]octan-8-yl)benzoic acid] | 8.8
CN1CCC2(C1)CN(c1cc(Cl)c(C(=O)N3COc4c(cccc4-c4cc(N5C6CCC5COC6)c(C(=O)O)cc4F)C3)c(Cl)c1)C2 [Compound 10-1, 4-[3-[2,6-Dichloro-4-(7-methyl-2,7-diazaspiro[3.4]octan-2-yl)benzoyl]-2,4-dihydro-1,3-benzoxazin-8-yl]-5-fluoro-2-(3-oxa-8-azabicyclo[3.2.1]octan-8-yl)benzoic acid] | 6.5
O=C(O)c1cc(F)c(-c2cccc3c2OCN(C(=O)c2c(Cl)cc(N4CC5(CCN(C6COC6)C5)C4)cc2Cl)C3)cc1N1C2CCC1COC2 [Compound 10-2, 4-[3-[2,6-Dichloro-4-[7-(oxetan-3-yl)-2,7-diazaspiro[3.4]octan-2-yl]benzoyl]-2,4-dihydro-1,3-benzoxazin-8-yl]-5-fluoro-2-(3-oxa-8-azabicyclo[3.2.1]octan-8-yl)benzoic acid] | 5.2
C[C@@H]1CN(c2cc(Cl)c(C(=O)N3COc4c(cccc4-c4cc(N5C6CCC5COC6)c(C(=O)O)cc4F)C3)c(Cl)c2)CCN1C [Compound 10-3, 4-[3-[2,6-Dichloro-4-[(3R)-3,4-dimethylpiperazin-1-yl]benzoyl]-2,4-dihydro-1,3-benzoxazin-8-yl]-5-fluoro-2-(3-oxa-8-azabicyclo[3.2.1]octan-8-yl)benzoic acid] | 1.5
C[C@@H]1CN(c2cc(Cl)c(C(=O)N3COc4c(cccc4-c4cc(N5C6CCC5COC6)c(C(=O)O)cc4F)C3)c(Cl)c2)C[C@H](C)N1C [Compound 10-4] | 4.8
C[C@H]1CN(c2cc(Cl)c(C(=O)N3COc4c(cccc4-c4cc(N5C6CCC5COC6)c(C(=O)O)cc4F)C3)c(Cl)c2)CCN1C [Compound 10-5, 4-[3-[2,6-Dichloro-4-[(3S)-3,4-dimethylpiperazin-1-yl]benzoyl]-2,4-dihydro-1,3-benzoxazin-8-yl]-5-fluoro-2-(3-oxa-8-azabicyclo[3.2.1]octan-8-yl)benzoic acid] | 4.3
CN1CCN(c2cc(Cl)c(C(=O)N3COc4c(cccc4-c4cc(N5C6CCC5COC6)c(C(=O)O)cc4F)C3)c(Cl)c2)CC1(C)C [Compound 10-6, 4-[3-[2,6-Dichloro-4-(3,3,4-trimethylpiperazin-1-yl)benzoyl]-2,4-dihydro-1,3-benzoxazin-8-yl]-5-fluoro-2-(3-oxa-8-azabicyclo[3.2.1]octan-8-yl)benzoic acid] | 9.1
O=C(O)c1cc(F)c(-c2cccc3c2OCN(C(=O)c2c(Cl)cc(N4C[C@@H]5C[C@H]4CN5C4COC4)cc2Cl)C3)cc1N1C2CCC1COC2 [Compound 10-7, 4-[3-[2,6-Dichloro-4-[(1S,4S)-5-(oxetan-3-yl)-2,5-diazabicyclo[2.2.1]heptan-2-yl]benzoyl]-2,4-dihydro-1,3-benzoxazin-8-yl]-5-fluoro-2-(3-oxa-8-azabicyclo[3.2.1]octan-8-yl)benzoic acid] | 23
C[C@@H]1CN(c2cc(Cl)c(C(=O)N3COc4c(cccc4-c4cc(N5C6CCC5COC6)c(C(=O)O)cc4F)C3)c(Cl)c2)CCN1C1COC1 [Compound 10-8, 4-[3-[2,6-Dichloro-4-[(3R)-3-methyl-4-(oxetan-3-yl)piperazin-1-yl]benzoyl]-2,4-dihydro-1,3-benzoxazin-8-yl]-5-fluoro-2-(3-oxa-8-azabicyclo[3.2.1]octan-8-yl)benzoic acid] | 1.5
O=C(O)c1cc(F)c(-c2cccc3c2OCN(C(=O)c2c(Cl)cc(N4CCCN(C5COC5)CC4)cc2Cl)C3)cc1N1CCOCC1 [Compound 10-9, 4-[3-[2,6-Dichloro-4-[4-(oxetan-3-yl)-1,4-diazepan-1-yl]benzoyl]-2,4-dihydro-1,3-benzoxazin-8-yl]-5-fluoro-2-morpholin-4-ylbenzoic acid] | 1.2
CN1C[C@@H]2C[C@H]1CN2c1cc(Cl)c(C(=O)N2COc3c(cccc3-c3cc(N4C5CCC4COC5)c(C(=O)O)cc3F)C2)c(Cl)c1 [Compound 10-10, 4-[3-[2,6-Dichloro-4-[(1S,4S)-5-methyl-2,5-diazabicyclo[2.2.1]heptan-2-yl]benzoyl]-2,4-dihydro-1,3-benzoxazin-8-yl]-5-fluoro-2-(3-oxa-8-azabicyclo[3.2.1]octan-8-yl)benzoic acid] | 25
O=C(O)c1cc(F)c(-c2cccc3c2OCN(C(=O)c2c(Cl)cc(N4CC5(C4)CN(C4COC4)C5)cc2Cl)C3)cc1N1CCOCC1 [Compound 10-11, 4-[3-[2,6-Dichloro-4-[2-(oxetan-3-yl)-2,6-diazaspiro[3.3]heptan-6-yl]benzoyl]-2,4-dihydro-1,3-benzoxazin-8-yl]-5-fluoro-2-morpholin-4-ylbenzoic acid] | 2.4
CN1CC2(C1)CN(c1cc(Cl)c(C(=O)N3COc4c(cccc4-c4cc(N5CCOCC5)c(C(=O)O)cc4F)C3)c(Cl)c1)C2 [Compound 10-12, 4-[3-[2,6-Dichloro-4-(6-methyl-2,6-diazaspiro[3.3]heptan-2-yl)benzoyl]-2,4-dihydro-1,3-benzoxazin-8-yl]-5-fluoro-2-morpholin-4-ylbenzoic acid] | 1.2
CC(C)N1CCC(Oc2cc(Cl)c(C(=O)N3COc4c(cccc4-c4ccc(C(=O)O)c(N5CCOCC5)c4)C3)c(Cl)c2)CC1 [Compound 10-13, 4-[3-[2,6-Dichloro-4-(1-propan-2-ylpiperidin-4-yl)oxybenzoyl]-2,4-dihydro-1,3-benzoxazin-8-yl]-2-morpholin-4-ylbenzoic acid] | 4.2
